Assay [1] has as its target T1, LH release (Rattus norvegicus, UniProt P30969).
T1 sequence (P30969 1-327): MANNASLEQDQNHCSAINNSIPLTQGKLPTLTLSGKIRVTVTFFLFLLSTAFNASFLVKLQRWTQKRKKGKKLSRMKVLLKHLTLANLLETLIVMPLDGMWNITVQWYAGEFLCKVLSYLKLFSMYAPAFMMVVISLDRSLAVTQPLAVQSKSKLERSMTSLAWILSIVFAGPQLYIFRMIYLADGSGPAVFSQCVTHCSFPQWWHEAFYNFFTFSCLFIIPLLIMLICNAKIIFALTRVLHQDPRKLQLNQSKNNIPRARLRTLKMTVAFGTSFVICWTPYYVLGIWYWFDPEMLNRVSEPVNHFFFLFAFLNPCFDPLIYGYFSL
Briefly: In vitro LH release from dissociated rat pituitary cells (agonists). The settings on record: negative log of concentration producing half-maximal release of LH, 3 hours at 37° C. The class given is cell-based.
Method: Rat pituitaries are removed from immature female rats, minced, and dissociated with collagenase/hyaluronidase. They are allowed to attach to 48-well microtiter plates for 48-72 hours, then are exposed to test compounds for 3 hours at 37° C. The medium is assayed for released LH by RIA (radioimmunoassay).

Assay [2] has as its target T1, LH release. Briefly: In vivo LH release in castrated rats. The settings on record: dose producing half-maximal LH release, time integrated LH response; for ED50: rat, iv, i.v., read-out: ED50 ug/kg i.v. Here is the method: The compound to be tested is administered to castrated rats intraveneously and the serum LH concentration at various time points is measured by RIA. The time integrated LH response is calculated and the dose producing half-maximal LH release (ED50) is reported.

For a further assay, the target named is T2, LHRH receptors (Rattus norvegicus, UniProt P30969).
T2 sequence (P30969 1-327): T1 sequence (P30969 1-327)
The assay is described as follows: Radioligand receptor binding assay, rat pituitary membranes. The note with it: radioiodinated [D-Leu6-des Gly10]-LHRH ethyl amide 50 pM, 2 hours at 4° C., read-out: Receptor Binding pkI (converted). The procedure: The radioligand (50 pM), receptors, and compounds to be tested are coincubated for 2 hours at 4° C. Bound ligand is separated from free ligand via centrifugation and aspiration.

Starred links: 1 amine or outer side, 2 acyl side, 3 side chain; linkers in the order of their positions; H or OH if unused. Non-standard residues stand in square brackets, D forms with d. Residues, ends and D or L forms follow the SMILES beside them. X1 = CCNC[C@@H](C(=O)[*:2])N(C)[*:1]; pGlu = O=C1CC[C@@H](C(=O)O)N1; NMeS = CN[C@@H](CO)C(=O)O; Sar = CNCC(=O)O

On to `CCNC(=O)[C@@H]1CCCN1C(=O)[C@H](CCCNC(=N)N)NC(=O)[C@H](CC(C)C)NC(=O)[C@@H](CC(C)C)NC(=O)[C@H](Cc1ccc(O)cc1)NC(=O)[C@H](CO)N(C)C(=O)[C@H](Cc1c[nH]c2ccccc12)NC(=O)[C@H](Cc1c[nH]cn1)NC(=O)[C@@H]1CCC(=O)N1` [Ex. 1, (pyro)Glu-His-Trp-N-Me-Ser-Tyr-D-Leu-Leu-Arg-Pro-NHEt] ([pGlu]HW[NMeS]Y[dL]LRP-NHEt), for which the “LH Release pD2” value at LH release [1] is reported as 9.43. The ED50 at LH release [2] is 7.2 µg/kg. As for `CC(C)C[C@H](NC(=O)[C@@H](Cc1ccc2ccccc2c1)NC(=O)[C@H](Cc1ccc(O)cc1)NC(=O)[C@H](CO)N(C)C(=O)[C@H](Cc1c[nH]c2ccccc12)NC(=O)[C@H](Cc1c[nH]cn1)NC(=O)[C@@H]1CCC(=O)N1)C(=O)N[C@@H](CCCNC(=N)N)C(=O)N1CCC[C@H]1C(=O)NCC(N)=O` [Ex. 3, (pyro)Glu-His-Trp-N-Me-Ser-Tyr-D-(2)-Nal-Leu-Arg-Pro-Gly-NH2], the ED50 at LH release [2] amounted to 0.129 µg/kg.

As for `CCNC[C@@H](C(=O)N[C@@H](Cc1ccc(O)cc1)C(=O)N[C@H](Cc1c[nH]c2ccccc12)C(=O)N[C@@H](CC(C)C)C(=O)N[C@@H](CCCNC(=N)N)C(=O)N1CCC[C@H]1C(=O)NCC)N(C)C(=O)[C@H](Cc1c[nH]c2ccccc12)NC(=O)[C@H](Cc1c[nH]cn1)NC(=O)CN(C)C(C)=O` [Ex. 7, N-Ac-Sar-His-Trp-(3)-N-Et-(2)-N-Me-Dap-Tyr-D-Trp-Leu-Arg-Pro-NHEt] (Ac-[Sar]HW[X1]Y[dW]LRP-NHEt), the “LH Release pD2” value at LH release [1] is on record as 9.73. At LH release [2], the ED50 ug/kg i.v. is 9.64 µg/kg. In the case of `CCNC(=O)CC[C@H](NC(=O)NCC)C(=O)N[C@@H](Cc1c[nH]cn1)C(=O)N[C@@H](Cc1c[nH]c2ccccc12)C(=O)N(C)[C@@H](CO)C(=O)N[C@@H](Cc1ccc(O)cc1)C(=O)N[C@H](Cc1c[nH]c2ccccc12)C(=O)N[C@@H](CC(C)C)C(=O)N[C@@H](CCCNC(=N)N)C(=O)N1CCC[C@H]1C(=O)NCC` [Ex. 12, (2)-N-(Ethylaminocarbonyl)-(5)-N-ethylamido-Glu-His-Trp-N-Me-Ser-Tyr-D-Trp- Leu-Arg-Pro-NHEt], the “LH Release pD2” value on LH release [1] stood at 9.31. Also, the ED50 on LH release [2] stood at 9.9 µg/kg. Also, the Ki at LHRH receptors is 1.05 nM. Consider `CCNC(=O)[C@@H]1CCCN1C(=O)[C@H](CCCNC(=N)N)NC(=O)[C@H](CC(C)C)NC(=O)[C@@H](Cc1c[nH]c2ccccc12)NC(=O)[C@H](Cc1ccc(O)cc1)NC(=O)[C@H](CO)N(C)C(=O)[C@H](Cc1c[nH]c2ccccc12)NC(=O)[C@H](Cc1c[nH]cn1)NC(=O)CN(C)C(C)=O` [Ex. 14, N-AcSar-His-Trp-N-Me-Ser-Tyr-D-Trp-Leu-Arg-Pro-NHEt] (Ac-[Sar]HW[NMeS]Y[dW]LRP-NHEt), for which the ED50 on LH release [2] was determined as 0.39 µg/kg. The same measure, in the same setting: under `CCNC(=O)[C@@H]1CCCN1C(=O)[C@H](CCCNC(=N)N)NC(=O)[C@H](CC(C)C)NC(=O)[C@@H](Cc1c[nH]c2ccccc12)NC(=O)[C@H](Cc1ccc(O)cc1)NC(=O)[C@H](CO)N(C)C(=O)[C@H](Cc1c[nH]c2ccccc12)NC(=O)[C@H](Cc1c[nH]cn1)NC(=O)[C@@H]1CCC(=O)N1` [Ex. 15, (pyro)Glu-His-Trp-N-Me-Ser-Tyr-D-Trp-Leu-Arg-Pro-NHEt] stands 1.38 µg/kg; under `CC(C)C[C@H](NC(=O)CNC(=O)[C@H](Cc1ccc(O)cc1)NC(=O)[C@H](CO)NC(=O)[C@H](Cc1c[nH]c2ccccc12)NC(=O)[C@H](Cc1c[nH]cn1)NC(=O)[C@@H]1CCC(=O)N1)C(=O)N[C@@H](CCCNC(=N)N)C(=O)N1CCC[C@H]1C(=O)NCC(N)=O` [LHRH, reference compound], 100 µg/kg.

Values taken from patent publication US5110904A (Abbott Laboratories, priority 1990, dated 1992).
